Laboratory results as given in ChEMBL document CHEMBL1201862, “PubChem BioAssay data set” (2004).
The source made the active and inactive calls.

Key:
[1] = molecular target: Protein-tyrosine kinase 2-beta (Homo sapiens, UniProt Q14289);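 further: potency of inhibitors of PYK2 kinase phosphorylation of poly-GT substrate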
[2] = Luminescence Cell-Based Dose Confirmation HTS to Identify Inhibitors of Polyadenylation.; format: functional
[3] = Luminescence Cell-Based Dose Response HTS to Identify Activators of Luciferase Translation or Activity in H4 […] Cells. [Related pubchem assays: 1829 (Project Summary), 1814 (Primary HTS)]; format: functional
H4 = experiment: Luminescence Cell-Based Dose Response HTS to Identify Activators of 5'UTR Stem-Loop Driven Prion Protein mRNA Translation in H4 Neuroglioblastoma Cells. [Related pubchem assays: 1829 (Project Summary), 1814 (Primary HTS)]; format: functional; conditions: Homo sapiens
[4] = Luminescence Cell-Based Dose Confirmation HTS to Identify Activators of 5'UTR Stem-Loop Driven Alpha-Synuclein mRNA Translation in H4 Neuroglioblastoma Cells. [Related pubchem assays: 1829 (Project Summary), 1814 (Primary HTS)]; format: functional
[5] = non-specific cell cytotoxicity, dose response, cytotoxicity control for PAX8 inhibitor project, plate reader, dry powder samples (AID 743021); format: functional, cell-based
[6] = molecular target: Luciferin 4-monooxygenase (Photinus pyralis, UniProt P08659); experiment: firefly luciferase enzyme inhibitors, dose response, biochemical, luminescence (AID 1891)
Protein skinhead-1 = molecular target: T1, Protein skinhead-1 (Caenorhabditis elegans, UniProt P34707); format: functional
T1 sequence (P34707 whole entry): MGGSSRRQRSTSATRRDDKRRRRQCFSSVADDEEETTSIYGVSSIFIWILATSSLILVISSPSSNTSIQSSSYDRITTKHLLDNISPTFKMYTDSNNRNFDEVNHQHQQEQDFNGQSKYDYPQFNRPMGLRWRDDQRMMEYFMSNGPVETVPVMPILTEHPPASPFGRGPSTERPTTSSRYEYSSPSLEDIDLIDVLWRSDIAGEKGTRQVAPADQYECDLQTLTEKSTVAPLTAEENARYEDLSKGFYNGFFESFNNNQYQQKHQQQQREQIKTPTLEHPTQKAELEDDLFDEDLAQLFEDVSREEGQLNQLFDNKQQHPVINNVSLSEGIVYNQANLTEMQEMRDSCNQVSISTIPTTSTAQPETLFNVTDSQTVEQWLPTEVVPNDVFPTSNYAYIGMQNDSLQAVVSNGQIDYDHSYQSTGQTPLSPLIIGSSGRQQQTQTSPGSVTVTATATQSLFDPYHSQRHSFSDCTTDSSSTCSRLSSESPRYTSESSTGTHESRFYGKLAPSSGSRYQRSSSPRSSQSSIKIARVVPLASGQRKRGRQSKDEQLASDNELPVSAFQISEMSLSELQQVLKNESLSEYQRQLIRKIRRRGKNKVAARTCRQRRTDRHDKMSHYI

[7] = molecular target: T2, Oxysterols receptor LXR-beta (Homo sapiens, UniProt P55055); experiment: LXR agonists, Gal4 luciferase reporter, dose response, counter-screen for ssDAF-12 agonist project, cell-based, luminescence, HEK293, S. stercoralis campaign (AID 720737); format: functional; conditions: read-out: IC50 (the source's name)
T2 sequence (P55055 whole entry): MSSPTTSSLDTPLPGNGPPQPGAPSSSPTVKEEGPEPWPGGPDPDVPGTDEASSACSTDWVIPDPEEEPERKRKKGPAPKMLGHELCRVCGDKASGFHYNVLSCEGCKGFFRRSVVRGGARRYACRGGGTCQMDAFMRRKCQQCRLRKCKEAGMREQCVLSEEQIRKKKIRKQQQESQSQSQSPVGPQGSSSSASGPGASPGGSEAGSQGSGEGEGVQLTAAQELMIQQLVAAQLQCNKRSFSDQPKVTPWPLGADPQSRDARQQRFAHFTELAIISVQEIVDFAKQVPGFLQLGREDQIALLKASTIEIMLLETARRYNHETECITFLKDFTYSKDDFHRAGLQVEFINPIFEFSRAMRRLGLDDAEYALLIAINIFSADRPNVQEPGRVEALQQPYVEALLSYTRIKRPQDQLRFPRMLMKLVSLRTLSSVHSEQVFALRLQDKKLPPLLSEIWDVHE

[8] = Luminescence-based cell-based high throughput dose response assay to identify activators of the DAF-12 from the parasite S. stercoralis (ssDAF-12).; format: functional
[9] = molecular target: T2, Oxysterols receptor LXR-beta; format: functional, cell-based
[10] = Luminescence Cell-Based Dose Confirmation HTS to Identify Inhibitors of Platelet Dense Granule Release. [Related pubchem assays: 1663 (Primary HTS), 1678 (Summary of Project)]; format: functional
[11] = inhibitors of PGC1a acetylation in cells, dose response, cell-based, cherry-picked samples (AID 720514); format: functional;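 further: potency may reflect raised or lowered acetylation signal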
[12] = M. tuberculosis H37Rv growth inhibitors, H37Rv strain (AID 1626); format: functional
[13] = A549 cell cytotoxicity, dose response, cytotoxicity control, cherry-picks, 26 µM top dose (AID 1053119); format: functional, cell-based
Prothrombin = Prothrombin (Homo sapiens, UniProt P00734); experiment: Thrombin 1536 HTS Dose Response Confirmation. [Related pubchem assays: 1046 (Thrombin 1536 HTS; hits were confirmed in this assay)]; format: functional
[14] = HepG2 cell cytotoxicity, dose response, cytotoxicity control, plate reader, cherry-pick, antagonist series (AID 743416); format: functional, cell-based
[15] = MC4R antagonists, dose response, counter-screen for LGR2 antagonist project, cell-based, plate reader, cherry pick (AID 743444); format: functional;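 further: transfected HEK 293 cells stimulated with alpha-MSH peptide; potency of inhibitors of the alpha-MSH evoked signal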
[16] = A549 cell cytotoxicity, dose response, cytotoxicity control, plate reader, cherry-pick, antagonist series (AID 743412); format: functional, cell-based
[17] = HEK293 cell cytotoxicity, dose response, cytotoxicity control, plate reader, cherry-picked samples (AID 743446); format: functional, cell-based
[18] = molecular target: E3 ubiquitin-protein ligase Mdm2 (Homo sapiens, UniProt Q00987); experiment: enhancers of MDM2-luciferase reporter signal, concentration-effect titration, project on inhibitors of MDM2 ubiquitin ligase, cellular assay, luminescent readout, 384-well plate format (AID 1394); format: functional;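 further: MDM2 E3 inhibitors raise luminescence so EC50 is for signal enhancement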
Sequence of E3 ubiquitin-protein ligase Mdm2 (Q00987 whole entry): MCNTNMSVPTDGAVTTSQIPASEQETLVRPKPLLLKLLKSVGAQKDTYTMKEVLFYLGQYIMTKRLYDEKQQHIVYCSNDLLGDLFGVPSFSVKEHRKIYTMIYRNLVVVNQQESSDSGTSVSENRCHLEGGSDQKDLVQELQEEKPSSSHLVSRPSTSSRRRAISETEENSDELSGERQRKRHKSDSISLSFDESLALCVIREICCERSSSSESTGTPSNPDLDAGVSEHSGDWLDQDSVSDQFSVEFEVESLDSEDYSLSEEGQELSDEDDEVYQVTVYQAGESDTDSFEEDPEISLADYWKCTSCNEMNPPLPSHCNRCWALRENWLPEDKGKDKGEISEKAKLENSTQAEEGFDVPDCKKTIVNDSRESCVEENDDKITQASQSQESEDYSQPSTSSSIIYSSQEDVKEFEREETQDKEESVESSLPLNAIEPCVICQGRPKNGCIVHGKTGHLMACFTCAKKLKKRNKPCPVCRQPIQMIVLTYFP

Sequence of Protein-tyrosine kinase 2-beta (Q14289 whole entry): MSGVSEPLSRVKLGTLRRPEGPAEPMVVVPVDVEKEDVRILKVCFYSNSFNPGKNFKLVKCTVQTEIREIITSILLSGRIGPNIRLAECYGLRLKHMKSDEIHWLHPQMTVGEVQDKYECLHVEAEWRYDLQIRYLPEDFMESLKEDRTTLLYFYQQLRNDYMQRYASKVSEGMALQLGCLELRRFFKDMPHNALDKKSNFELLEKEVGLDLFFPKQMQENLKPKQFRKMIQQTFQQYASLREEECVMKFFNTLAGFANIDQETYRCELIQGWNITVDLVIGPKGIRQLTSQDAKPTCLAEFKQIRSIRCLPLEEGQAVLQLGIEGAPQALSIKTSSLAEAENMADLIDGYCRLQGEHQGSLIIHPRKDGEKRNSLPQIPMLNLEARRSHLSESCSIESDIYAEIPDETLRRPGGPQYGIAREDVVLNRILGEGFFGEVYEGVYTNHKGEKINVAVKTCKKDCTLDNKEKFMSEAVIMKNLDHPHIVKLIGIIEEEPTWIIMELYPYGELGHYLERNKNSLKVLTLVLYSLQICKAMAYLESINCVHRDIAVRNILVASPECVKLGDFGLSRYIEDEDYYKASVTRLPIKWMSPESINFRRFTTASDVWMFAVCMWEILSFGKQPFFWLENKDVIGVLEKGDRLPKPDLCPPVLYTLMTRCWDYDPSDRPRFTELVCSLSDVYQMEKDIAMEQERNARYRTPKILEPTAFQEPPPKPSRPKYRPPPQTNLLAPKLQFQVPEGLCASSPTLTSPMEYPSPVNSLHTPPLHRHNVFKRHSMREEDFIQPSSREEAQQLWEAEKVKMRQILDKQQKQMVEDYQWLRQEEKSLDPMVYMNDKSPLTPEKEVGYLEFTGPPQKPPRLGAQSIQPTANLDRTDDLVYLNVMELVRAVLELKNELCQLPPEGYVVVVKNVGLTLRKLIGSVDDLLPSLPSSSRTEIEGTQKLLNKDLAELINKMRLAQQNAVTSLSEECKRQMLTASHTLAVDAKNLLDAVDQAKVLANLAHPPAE
Sequence of Luciferin 4-monooxygenase (P08659 whole entry): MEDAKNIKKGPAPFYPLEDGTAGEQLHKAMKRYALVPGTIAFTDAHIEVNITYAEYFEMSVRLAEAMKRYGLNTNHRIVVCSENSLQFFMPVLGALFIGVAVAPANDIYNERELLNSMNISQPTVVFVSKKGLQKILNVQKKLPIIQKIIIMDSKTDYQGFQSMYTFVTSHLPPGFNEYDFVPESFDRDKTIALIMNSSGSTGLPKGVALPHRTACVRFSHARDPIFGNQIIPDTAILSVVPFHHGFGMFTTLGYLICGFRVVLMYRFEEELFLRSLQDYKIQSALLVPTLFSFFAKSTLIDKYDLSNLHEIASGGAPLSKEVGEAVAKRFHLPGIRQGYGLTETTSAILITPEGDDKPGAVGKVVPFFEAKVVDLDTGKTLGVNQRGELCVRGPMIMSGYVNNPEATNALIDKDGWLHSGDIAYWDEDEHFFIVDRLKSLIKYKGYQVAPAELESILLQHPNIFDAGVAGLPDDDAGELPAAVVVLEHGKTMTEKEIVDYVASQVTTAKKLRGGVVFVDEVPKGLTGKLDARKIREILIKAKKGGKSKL

COCCN(Cc1ccccc1)P(=O)(O)c1ccccc1OCC(=O)O
IC50 [1]: 7.64 µM (active)

COC(=O)c1cc(C(=O)N2CCN(c3cccc(C)c3C)CC2)cc([N+](=O)[O-])c1
EC50 [2]: > 120 µM (not active)

O=C(CSc1ncccc1-c1nc2ccccc2[nH]1)N1CCc2ccccc21
EC50 [3]: 4.81 µM (active) | EC50 (H4): 21.1 µM (inconclusive) | EC50 [4]: 15.1 µM (active) | AC50 [5]: 59.9 µM (active)

COc1cccc(-c2nc(-c3cccs3)no2)c1
EC50 [6]: > 112 µM (not active) | IC50 (Protein skinhead-1): > 100 µM (inactive) | EC50 [7]: > 67.6 µM (inactive) | IC50 [8]: > 67.6 µM (inactive) | EC50 [9]: > 67.6 µM (inactive) | EC50 (cells): > 67.6 µM (inactive) | EC50 [10]: > 112 µM (not active)

O=C(/C=C/c1ccc(N2CCCCC2)c([N+](=O)[O-])c1)c1ccc(O)cc1
AC50 [11]: 28.1 µM (active)

CC(=O)Nc1ccc(Nc2cc(C)nc3c(-c4ccccc4)c(C)nn23)cc1
IC50 [12]: > 100 µM (active)

Cc1ccn2cc(-c3ccc(NC(=O)c4ccco4)cc3)nc2c1
AC50 [13]: > 52 µM (inactive)

Cn1c(=O)c(C(=O)NNC(=O)c2ccccc2Cl)c(O)c2ccccc21
EC50 [2]: > 120 µM (not active)

N=C(NOC(=O)c1ccccc1Cl)c1ccccc1
IC50 [8]: > 67.6 µM (inactive) | EC50 (cells): > 67.6 µM (inactive)

NC(=NOC(=O)c1ccccc1Cl)c1ccccc1
EC50 [7]: > 67.6 µM (inactive) | EC50 [9]: > 67.6 µM (inactive)

CSc1nc(-c2ccccc2)nn1C(=O)c1ccco1
IC50 (Prothrombin): 0.3 µM (active)

Cc1ccc2c(c1)C1CN(C)CCC1N2C(=O)c1cn(-c2ccccc2)nc1-c1ccccc1 (stereo not drawn)
AC50 [14]: > 52 µM (inactive) | AC50 [15]: 55.6 µM (active) | IC50 (Prothrombin): 3.04 µM (active) | AC50 [16]: 36.4 µM (active) | AC50 [17]: 35.3 µM (active)

O=C1NC(=O)c2cc(NC(=O)C3COc4ccccc4O3)ccc21 (stereo not drawn)
EC50 [18]: 6.75 µM (not active)
